Laboratory results taken from patent US6274715A, “Tricyclic erythromycin derivatives” (priority 1997, dated 2001).
Converted amounts (≈) assume the structure as drawn. Like-named read-outs stand apart in the source and are kept apart here.

Key:
Type in all cases: cell-based
ESCHERICHIA COLI SS = test: In vitro antibacterial activity, MIC, BHI agar dilution; settings: E. coli SS, unit assumed
[1] = system: PSEUDOMONAS AERUGINOSA K799/WT; test: as above; settings: P. aeruginosa K799/WT
[2] = system: STREPTOCOCCUS PYOGENES EES61; test: as above; settings: S. pyogenes EES61, unit assumed
[3] = system: STAPHYLOCOCCUS AUREUS A5177; test: as above; settings: S. aureus A5177, unit assumed
[4] = system: KLEBSIELLA PNEUMONIAE ATCC 8045; test: as above
[5] = system: PSEUDOMONAS AERUGINOSA K799/61; test: as above
[6] = system: PROVIDENCIA STUARTII CMX 640; settings: P. stuartii CMX 640; BHI agar; unit assumed
[7] = system: PSEUDOMONAS AERUGINOSA BMH10; test: In vitro antibacterial activity, MIC, BHI agar dilution
[8] = system: STAPHYLOCOCCUS AUREUS NCTC10649M; test: as above; settings: S. aureus NCTC10649M
ESCHERICHIA COLI DC-2 = test: as above
[9] = system: STAPHYLOCOCCUS AUREUS A-5278; test: as above; settings: S. aureus A-5278, unit assumed
M[…] ATCC 9341 = test: as above
How it was run: (§1)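 BHI agar dilution, 12 plates; inoculum 1:100 (1:10 slow-growing strains), Steers replicator; 35-37° C, 20-24 h. MIC = lowest conc. with no growth/slight haze/sparse colonies vs growth control, visual read. Erythromycin A reference plate.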

EN[…] ATCC 8043 = test: as above; settings: E. faecium ATCC 8043, unit assumed
How it was run: as §1

M[…] ATCC 4698 = test: as above
How it was run: as §1

STR[…] 508 = test: as above
How it was run: as §1

[10] = system: STAPHYLOCOCCUS AUREUS CMX 553; test: as above
[11] = system: STREPTOCOCCUS PYOGENES PIU 2548; test: as above
[12] = system: STAPHYLOCOCCUS EPIDERMIDIS 3519; settings: S. epidermidis 3519; BHI agar; unit assumed
[13] = system: STAPHYLOCOCCUS AUREUS ATCC 6538P; test: In vitro antibacterial activity, MIC, BHI agar dilution; settings: S. aureus ATCC 6538P, 35-37° C., 20 to 24 hours, unit assumed
[14] = system: PSEUDOMONAS AERUGINOSA 5007; test: as above
[15] = system: STAPHYLOCOCCUS AUREUS CMX 642A; test: as above; settings: S. aureus CMX 642A
CANDIDA ALBICANS CCH 442 = test: as above; settings: C. albicans CCH 442, unit assumed
[16] = system: ENTEROBACTER AEROGENES ATCC 13048; test: as above
[17] = system: STAPHYLOCOCCUS AUREUS 1775; test: as above; settings: S. aureus 1775, unit assumed
[18] = system: PSEUDOMONAS AERUGINOSA DPHD-2862; test: as above; settings: P. aeruginosa DPHD-2862, unit assumed
ESCHERICHIA COLI H560 = test: as above; settings: E. coli H560, unit assumed
[19] = system: PSEUDOMONAS AERUGINOSA DPHD-5263; test: as above; settings: P. aeruginosa DPHD-5263, unit assumed
PSEUDOMONAS CEPACIA 296I = test: as above; settings: P. cepacia 296I, unit assumed
[20] = system: ACINETOBACTER CALCOACETICUS CMX 669; test: as above; settings: A. calcoaceticus CMX 669, unit assumed
ESCHERICHIA COLI JUHL = settings: E. coli JUHL; BHI agar; unit assumed
[21] = system: MYCOBACTERIUM SMEGMATIS ATCC 114; test: In vitro antibacterial activity, MIC, BHI agar dilution; settings: M. smegmatis ATCC 114, unit assumed
ESCHERICHIA COLI KNK 437 = settings: E. coli KNK 437, BHI agar, unit assumed
[22] = system: STREPTOCOCCUS PYOGENES 930; test: In vitro antibacterial activity, MIC, BHI agar dilution; settings: S. pyogenes 930, unit assumed
[23] = system: STREPTOCOCCUS BOVIS A-5169; test: as above; settings: S. bovis A-5169, listed as Ex 111, unit assumed
[24] = K. pneumoniae ATCC 8045, unit assumed
[25] = P. aeruginosa K799/61, unit assumed
[26] = P. aeruginosa BMH10, unit assumed
[27] = M. luteus ATCC 9341, unit assumed
[28] = M. luteus ATCC 4698, unit assumed
[29] = S. aureus CMX 553, unit assumed
[30] = S. pyogenes PIU 2548, unit assumed
[31] = P. aeruginosa 5007, unit assumed
[32] = E. aerogenes ATCC 13048, unit assumed

| Compound | MIC (ESCHERICHIA COLI SS) | MIC ([1]; unit assumed) | MIC [2] | MIC [3] | MIC [4, 24] | MIC [5, 25] | MIC [6] | MIC [7, 26] | MIC ([8]; unit assumed) | MIC [9] | MIC (EN[…] ATCC 8043) | MIC [13] | MIC (CANDIDA ALBICANS CCH 442) | MIC [17] | MIC [18] | MIC (ESCHERICHIA COLI H560) | MIC [19] | MIC (PSEUDOMONAS CEPACIA 296I) | MIC [20] | MIC (ESCHERICHIA COLI JUHL) | other results |
| --- | --- | --- | --- | --- | --- | --- | --- | --- | --- | --- | --- | --- | --- | --- | --- | --- | --- | --- | --- | --- | --- |
| CC[C@H]1OC(=O)[C@H](C)C(=O)[C@H](C)[C@@H](O[C@@H]2O[C@H](C)C[C@H](N(C)C)[C@H]2O)[C@](C)(OC)C[C@@H](C)C2=N[C@H](COCc3ccc(OC)cc3)CN3C(=O)O[C@@]1(C)[C@H]3[C@H]2C [Example 90] | 0.78 µg/mL (≈ 0.99 µM) | > 100 µg/mL | ≤ 0.005 µg/mL | 0.39 µg/mL (≈ 0.495 µM) | > 100 µg/mL | 6.2 µg/mL (≈ 7.87 µM) | > 100 µg/mL | > 100 µg/mL | 0.78 µg/mL (≈ 0.99 µM) | > 100 µg/mL | 0.02 µg/mL (≈ 0.0254 µM) | 0.39 µg/mL (≈ 0.495 µM) | > 100 µg/mL | > 100 µg/mL | > 100 µg/mL | 50 µg/mL (≈ 63.5 µM) | > 100 µg/mL | > 100 µg/mL | 100 µg/mL (≈ 127 µM) | > 100 µg/mL | MIC (ESCHERICHIA COLI DC-2; E. coli DC-2, unit assumed): > 100 µg/mL; MIC (M[…] ATCC 9341; [27]): 0.1 µg/mL (≈ 0.127 µM); MIC (M[…] ATCC 4698; [28]): 0.78 µg/mL (≈ 0.99 µM); MIC (STR[…] 508; S. agalactiae CMX 508, unit assumed): 0.02 µg/mL (≈ 0.0254 µM); MIC [10, 29]: 0.39 µg/mL (≈ 0.495 µM); MIC [11, 30]: 0.78 µg/mL (≈ 0.99 µM); MIC [12]: 0.39 µg/mL (≈ 0.495 µM); MIC [14, 31]: > 100 µg/mL; MIC ([15]; unit assumed): 0.39 µg/mL (≈ 0.495 µM); MIC [16, 32]: > 100 µg/mL; MIC [21]: 0.78 µg/mL (≈ 0.99 µM); MIC (ESCHERICHIA COLI KNK 437): > 100 µg/mL |
| CC[C@H]1OC(=O)[C@H](C)C(=O)[C@H](C)[C@@H](O[C@@H]2O[C@H](C)C[C@H](N(C)C)[C@H]2O)[C@](C)(OC)C[C@@H](C)C2=NC3CN(CCCc4ccccc4)CC3N3C(=O)O[C@@]1(C)[C@H]3[C@H]2C (stereo partly drawn) [Example 111] | 0.39 µg/mL (≈ 0.489 µM) | – | 0.02 µg/mL (≈ 0.0251 µM) | 0.2 µg/mL (≈ 0.251 µM) | – | – | > 100 µg/mL | – | – | > 100 µg/mL | 0.1 µg/mL (≈ 0.125 µM) | 0.2 µg/mL (≈ 0.251 µM) | 0.39 µg/mL (≈ 0.489 µM) | > 100 µg/mL | > 100 µg/mL | 50 µg/mL (≈ 62.7 µM) | > 100 µg/mL | 25 µg/mL (≈ 31.4 µM) | > 100 µg/mL | 100 µg/mL (≈ 125 µM) | MIC ([1]; listed as Ex 111, unit assumed): 1.56 µg/mL (≈ 1.96 µM); MIC ([4]; K. pneumoniae ATCC 8045, listed as Ex 111, unit assumed): > 100 µg/mL; MIC ([5]; P. aeruginosa K799/61, listed as Ex 111, unit assumed): 50 µg/mL (≈ 62.7 µM); MIC ([7]; P. aeruginosa BMH10, listed as Ex 111, unit assumed): > 100 µg/mL; MIC [22]: 50 µg/mL (≈ 62.7 µM); MIC ([8]; listed as Ex 111, unit assumed): 0.2 µg/mL (≈ 0.251 µM); MIC (ESCHERICHIA COLI DC-2; E. coli DC-2, listed as Ex 111, unit assumed): 100 µg/mL (≈ 125 µM); MIC (M[…] ATCC 9341; M. luteus ATCC 9341, listed as Ex 111, unit assumed): 0.05 µg/mL (≈ 0.0627 µM); MIC (M[…] ATCC 4698; M. luteus ATCC 4698, listed as Ex 111, unit assumed): 0.39 µg/mL (≈ 0.489 µM); MIC (STR[…] 508; S. agalactiae CMX 508, listed as Ex 111, unit assumed): 0.05 µg/mL (≈ 0.0627 µM); MIC ([10]; S. aureus CMX 553, listed as Ex 111, unit assumed): 0.2 µg/mL (≈ 0.251 µM); MIC ([11]; S. pyogenes PIU 2548, listed as Ex 111, unit assumed): 0.39 µg/mL (≈ 0.489 µM); MIC ([14]; P. aeruginosa 5007, listed as Ex 111, unit assumed): 100 µg/mL (≈ 125 µM); MIC ([15]; listed as Ex 111, unit assumed): 0.39 µg/mL (≈ 0.489 µM); MIC [23]: 0.01 µg/mL (≈ 0.0125 µM); MIC ([16]; E. aerogenes ATCC 13048, listed as Ex 111, unit assumed): > 100 µg/mL; MIC (ESCHERICHIA COLI KNK 437; listed as Ex 111): > 100 µg/mL |
| CCC1OC(=O)C(C)C(=O)C(C)C(OC2OC(C)CC(N(C)C)C2O)C(C)(OC)CC(C)C2=NCC(CSc3ccccc3)(CN(C)Cc3ccccc3)N3C(=O)OC1(C)C3C2C (stereo not drawn) [Example 133] | 12.5 µg/mL (≈ 14 µM) | > 100 µg/mL | 0.02 µg/mL (≈ 0.0224 µM) | 0.78 µg/mL (≈ 0.873 µM) | > 100 µg/mL | 12.5 µg/mL (≈ 14 µM) | > 100 µg/mL | > 100 µg/mL | 1.56 µg/mL (≈ 1.75 µM) | 25 µg/mL (≈ 28 µM) | 0.1 µg/mL (≈ 0.112 µM) | 0.78 µg/mL (≈ 0.873 µM) | 50 µg/mL (≈ 56 µM) | 25 µg/mL (≈ 28 µM) | > 100 µg/mL | > 100 µg/mL | > 100 µg/mL | > 100 µg/mL | > 100 µg/mL | > 100 µg/mL | MIC [22]: 6.2 µg/mL (≈ 6.94 µM); MIC (ESCHERICHIA COLI DC-2; E. coli DC-2, unit assumed): > 100 µg/mL; MIC (M[…] ATCC 9341; [27]): 0.2 µg/mL (≈ 0.224 µM); MIC (M[…] ATCC 4698; [28]): 1.56 µg/mL (≈ 1.75 µM); MIC [10, 29]: 1.56 µg/mL (≈ 1.75 µM); MIC [11, 30]: 1.56 µg/mL (≈ 1.75 µM); MIC [12]: 1.56 µg/mL (≈ 1.75 µM); MIC [14, 31]: > 100 µg/mL; MIC ([15]; unit assumed): 1.56 µg/mL (≈ 1.75 µM); MIC [16, 32]: > 100 µg/mL; MIC [21]: 0.78 µg/mL (≈ 0.873 µM); MIC (ESCHERICHIA COLI KNK 437): > 100 µg/mL |
